Values after ≈ are worked out from the molar mass of the structure shown. Where a SMILES comes first, the peptide text is derived from it. The star is where a group is joined. Butanoyl(2,2-Me2) = CCC(C)(C)C(=O)*; Octanoyl(6-Me) = CCC(C)CCCCC(=O)*
Experiments:
P. aeruginosa PAO1 = test: Time-kill curves (T3log); assay type: cell-based, Pseudomonas aeruginosa; conditions: MH, 37 °C with shaking, sampling 15 min to 6 h
Description: Time-kill studies were determined with glass tubes containing 10 ml of MH and different concentrations of the peptides (1, 2 and 4 times their MIC). Overnight cultures of P. aeruginosa PAO1 in TSB were adjusted at 5 × 10^7 CFU/ml turbidimetrically. This […] suspension was diluted in the MH tubes (1:50) for the time-kill assay. Tubes were incubated at 37 °C with shaking and samples were taken at the following time points after the beginning of incubation: 15 min, 30 min, 45 min, 1 h, 2 h, 4 h and 6 h. Each sample was serially diluted and plated. The lower limit of detection was 30 CFU/ml (1.5 × log10 CFU/ml).
To quantify the killing efficiency of the treatments, the parameter T3log (defined as the time required for the treatment to decrease 3 logs the initial inoculum) was used.

[1] = system: Pseudomonas aeruginosa PAO1 planktonic cells; assay type: cell-based; conditions: PAO1, 24 h
Description: Minimal inhibitory concentrations (MIC) of the peptides were determined in Mueller Hinton (MH) medium (Difco Laboratories, Detroit, MI, USA) by the broth microdilution assay following recommendations of the Clinical and Laboratory Standards Institute (CLSI, formerly NCCLS) with some modifications. Minimum bactericidal concentration (MBC) was defined as the concentration that caused a 3-log viability decrease in the initial inoculum and was calculated by colony counts on TSA plates incubated for 24 h at 37 °C.

S. aureus = test: MIC against S. aureus; assay type: cell-based; conditions: data not shown
[2] = system: P. aeruginosa PAO1 biofilms; assay type: cell-based, Pseudomonas aeruginosa; conditions: 10XMIC, 24 h at 37 °C, biofilms grown in microplates (static conditions)
Description: In the microplate based assay, biofilms were grown with no fluid shear and the anti-biofilm activity of peptides was assessed as previously described with some modifications. Briefly, overnight cultures of P. aeruginosa PAO1 in TSB were adjusted at 5 × 10^7 CFU/ml turbidimetrically. This suspension was diluted in TSB (1:100) and 100 μl aliquots were added to the wells of a 96-well plate. After 24 h incubation at 37 °C, planktonic bacteria were removed by gently inverting the plate and then the biofilm-containing wells were washed with saline (0.85 % NaCl). The antimicrobial compound was serially diluted in Mueller Hinton (MH) at final concentrations higher than its planktonic MIC and 200 μl of each dilution was added to the wells. After 24 h incubation at 37 °C, biofilms were stained with either MTT (Sigma, St. Louis, MO, USA) or crystal violet (CV). As control, duplicate biofilms were incubated with MH containing no antimicrobial.
To quantify the disinfection (or bactericidal) activity of the antimicrobials on the biofilms, the MTT assay was used and performed as follows. After the treatment, the biofilms were rinsed with saline and 200 μl of a 0.5 mg/ml dilution of MTT in MH, was added to the wells. Incubation of biofilm with MTT was carried out during 4 h at 37 °C with no shaking. As a measure of cell viability, the conversion of MTT to a […] was determined by solubilizing the salt in 100 μl/well of DMSO and reading the absorbance of the resulting solution at 540 nm.
Both the disinfection and removal activity of antimicrobials were expressed as “activity percentage”, a parameter that was calculated using the following formula: ActivityPercentage=C−B−T−B/C−B×100
Where C is the absorbance value of the control well with non-treated biofilm, T corresponds to the absorbance value of the well with treated biofilm and B is the blank well (i.e. with no biofilm).

[3] = system: P. aeruginosa PAO1 pMF230 biofilm; test: CDC-reactor biofilm assay, confocal laser scanning microscopy (GFP/PI); assay type: cell-based, Pseudomonas aeruginosa; conditions: 10XMIC, 60 min, CLSM, determined by volume
Description: (§1) Briefly, 1 ml of an overnight culture of P. aeruginosa PAO1 pMF230 was inoculated into 350 ml of TSB and this suspension was used to fill the reactor chamber. After 24 h of growth in batch culture at 37 °C with magnetic agitation, a continuous flow of TSB (3 g/l) was applied to the reactor chamber at a rate of 11 ml/min. Under these conditions, a dense biofilm develops on the surface of small disks called coupons that are constantly bathed in fresh culture medium. After 24 h incubation, the coupons were removed from the chamber and planktonic cells were eliminated by rinsing the coupons with saline. […]
(§2) For the microscopic assessment of anti-biofilm activity, biofilms grown and treated on coupons as detailed above were soaked in a 120 μM solution of propidium iodide (PI, live/dead® Baclight™ bacterial viability kit, Invitrogen, Carlsbad, CA, USA) in filter-sterilized distilled water and incubated for 15 min at room temperature. Then, coupons were rinsed in filter-sterilized distilled water and their surface was examined by fluorescence microscopy using FITC filter (green fluorescence: λexcitation, 499 nm; λemission, 519 nm) and TRITC filter (red fluorescence: λexcitation, 552 nm; λemission, 578 nm). […] Microscope images were analyzed with the software Imaris® × 64 5.7.2. […]

HeLa cells = test: Cytotoxicity assay (MTT); assay type: cell-based
Description: Cytotoxicity was assayed on HeLa cells using the MTT [3-(4,5-dimethylthiazoyl-2-yl) 2,5 diphenyltetrazolium bromide protocol. Cells were grown in Dulbeccos’s modified Eagle’s medium (DMEM) and adjusted to a concentration of 10^5 cells/ml (MTT) in 96 wells polystyrene plates. Plates were incubated for 24 h at 37 °C in 5 % CO2, then supplemented with increasing amounts of peptides diluted in 2 mM Hepes pH 7.2, and incubation carried on for 24 h under the same conditions. After this time, filter-sterilized MTT was added in different plates. After 3 h, the content of the wells was gently solved and mixed with 100 μl of DMSO (MTT). Absorbance was measured at 540 nm. Compound cytotoxicity was expressed as LC50, the concentration of the compound that is lethal to 50 % of the cells.

[4] = system: P. aeruginosa PAO1 pMF230 biofilm; test: CDC-reactor biofilm assay, fluorescence microscopy (GFP/PI); assay type: cell-based, Pseudomonas aeruginosa; conditions: 10XMIC, 60 min, CDC-reactor coupons; compared with 24 h microplate assay
Description: as §1, §2

SMILES	T3log at 1X MIC (time needed to decrease 3 logs the initial inoculum) (P. aeruginosa PAO1) [minutes]	T3log at 2X MIC (time needed to decrease 3 logs the initial inoculum) (P. aeruginosa PAO1) [minutes]	T3log at 4X MIC (time needed to decrease 3 logs the initial inoculum) (P. aeruginosa PAO1) [minutes]	MBC (minimal bactericidal concentration) [1] [µg/mL]	MIC (minimal inhibitory concentration) [1] [µg/mL]	MIC against S. aureus compared with non-acylated counterpart (S. aureus)	Disinfection activity (biofilm-forming bacteria killed, MTT test) [2]	Percentage of dead (red) cells in the biofilm volume [3] [%]	LC50 expressed as multiple of the MIC (HeLa cells) [XMIC]	LC50 (concentration lethal to 50 % of the cells) (HeLa cells; HeLa cells, 24 h, MTT) [µg/mL]	Anti-biofilm activity under static and dynamic conditions (fluorescence microscopy) [4]
CCC(C)CCCCC(=O)N[C@@H](Cc1ccccc1)C(=O)N[C@@H](Cc1c[nH]c2ccccc12)C(=O)N[C@@H](CCCNC(=N)N)C(=O)N[C@@H](CCCNC(=N)N)C(=O)N[C@@H](Cc1ccccc1)C(=O)N[C@@H](Cc1c[nH]c2ccccc12)C(=O)N[C@@H](CCCNC(=N)N)C(=O)N[C@@H](CCCNC(=N)N)C(N)=O (stereo partly shown) [6-MO-LF11-227] ({Octanoyl(6-Me)}-FWRRFWRR-NH2)	10	10	10	128 (≈ 88.3 µM)	128 (≈ 88.3 µM)	eight times lower					
CC[C@H](C)[C@H](NC(=O)[C@H](CCCNC(=N)N)NC(=O)[C@@H](NC(=O)[C@H](CCCNC(=N)N)NC(=O)[C@H](Cc1c[nH]c2ccccc12)NC(=O)[C@H](Cc1ccccc1)NC(=O)[C@@H]1CCCN1C(=O)C(C)(C)CC)[C@@H](C)CC)C(=O)N[C@@H](CCCNC(=N)N)C(=O)N[C@@H](CCCNC(=N)N)C(N)=O [DI-MB-LF11-322, 2,2-dimethylbutanoyl-PFWRIRIRR] ({Butanoyl(2,2-Me2)}-PFWRIRIRR-NH2)	12	11	10	32 (≈ 22.9 µM)	32 (≈ 22.9 µM)		medium-range disinfection activity	99.81	~2	80	potent anti-biofilm activity
